Source: article PMC6952414 (Nature Communications, 2020)
“And” between values parts separate entries of the source, which are not always exact repeats. Equal values may be shown once.

System: HA
Format: binding, IAV H1N1 strain A/Puerto Rico/8/1934 (PR8)

First: IRRVNHH
Second: RRRVNHN
The HA x ratio of the first is lower: 0.41 for the first, 0.66 for the second.

First: RRRVNDH
Second: KRRVNHH
The HA x ratio of the first is lower: 0.72 for the first, 0.87 for the second.

First: RRRVNHG
Second: PRRVNHH
The HA x ratio of the first is higher: 1.43 for the first, 0.56 for the second.

First: RRRVHHH
Second: RTRVNHH
The HA x ratio of the first is lower: 0.35 for the first, 2.79 for the second.

Compared with RRRVNHR, RRRVRHH is lower in HA x ratio: 1.48 for the first, 1.24 for the second.

Compared with RRRVNWH, RYRVNHH is higher in HA x ratio: 0.80 for the first, 1.46 for the second.

Going from ERRVNHH to RRRVNHM, the HA x ratio falls from 0.60 to 0.42.

First: FRRVNHH
Second: RLRVNHH
The HA x ratio of the first is lower: 0.71 for the first, 1.05 for the second.

First: RRVVNHH
Second: MRRVNHH
The HA x ratio of the first is lower: 0.57 for the first, 0.73 for the second.

Going from RNRVNHH to RRIVNHH, the HA x ratio rises from 1.11 to 1.20.

Going from RRRWNHH to RRRVEHH, the HA x ratio rises from 0.30 to 0.64.

Going from RRRVNIH to RRRVTHH, the HA x ratio falls from 0.95 to 0.46.

Compared with RREVNHH, RRRVNSH is lower in HA x ratio: 3.11 for the first, 0.86 for the second.

First: RRRVNLH
Second: DRRVNHH
The HA x ratio of the first is higher: 1.09 for the first, 0.65 for the second.

Compared with RRRSNHH, RRRVPHH is higher in HA x ratio: 0.40 for the first, 0.90 for the second.

First: RRRHNHH
Second: RRRVNHI
The HA x ratio of the first is lower: 0.30 for the first, 0.72 for the second.

First: RRFVNHH
Second: RRRMNHH
The HA x ratio of the first is higher: 2.86 for the first, 2.13 for the second.

Going from RRRTNHH to RRWVNHH, the HA x ratio rises from 0.28 to 0.66.

First: WRRVNHH
Second: RRRVNHF
The HA x ratio of the first is lower: 0.56 for the first, 0.66 for the second.

Going from RRRENHH to RRRYNHH, the HA x ratio falls from 0.59 to 0.39.

First: RHRVNHH
Second: RVRVNHH
The HA x ratio of the first is higher: 1.57 for the first, 0.68 for the second.

Going from RFRVNHH to RQRVNGG, the HA x ratio rises from 0.56 to 0.75.

First: RRRVIHH
Second: RRAVNHH
The HA x ratio of the first is lower: 0.63 for the first, 0.96 for the second.

Going from HRRVNHH to RRRVNHK, the HA x ratio rises from 0.38 to 0.59.

Going from RRTVNHH to RRRVMHH, the HA x ratio falls from 1.15 to 0.90.

First: RRRVDHH
Second: RWRVNHH
The HA x ratio of the first is lower: 1.09 for the first, 1.99 for the second.

Going from RRKVNHH to RRRGNHH, the HA x ratio falls from 0.82 to 0.46.

First: RRRVNHW
Second: RIRVNHH
The HA x ratio of the first is lower: 0.44 for the first, 1.38 for the second.

First: RRYVNHH
Second: RRRVSHH
The HA x ratio of the first is higher: 0.69 for the first, 0.61 for the second.

First: RRGVNHH
Second: RRRVNGH
The HA x ratio of the first is higher: 2.40 for the first, 0.70 for the second.

Going from RRRINHH to RRRVNTH, the HA x ratio rises from 0.39 to 0.88.

Compared with RSRVNHH, RRRANHH is lower in HA x ratio: 2.42 for the first, 0.36 for the second.

Compared with RPRVNHH, RRRVNHV is lower in HA x ratio: 0.60 for the first, 0.49 for the second.

Going from RRRVKHH to YRRVNHH, the HA x ratio rises from 1.27 to 1.34.

Compared with RRRVNHS, RDRVNHH is lower in HA x ratio: 1.03 for the first, 0.80 for the second.

Compared with RRRVNNH, TRRVNHH is lower in HA x ratio: 1.00 for the first, 0.39 for the second.

Compared with RMRVNHH, RRRVNVH is lower in HA x ratio: 0.90 for the first, 0.80 for the second.

First: RARVNHH
Second: RGRVNHH
The HA x ratio of the first is higher: 1.61 for the first, 1.41 for the second.

Going from RRRVNYH to SRRVNHH, the HA x ratio falls from 1.55 to 0.49.

Compared with RRMVNHH, RRRNNHH is higher in HA x ratio: 0.79 for the first, 2.20 for the second.

Going from GRRVNHH to RRQVNHH, the HA x ratio rises from 0.37 to 2.55.

Going from RRRQNHH to RRRKNHH, the HA x ratio falls from 1.81 to 1.55.

Compared with RRRVFHH, RRRVWHH is lower in HA x ratio: 0.71 for the first, 0.57 for the second.

Going from RRRVNHP to RRRVNHQ, the HA x ratio falls from 1.63 to 0.72.

Going from RRRRNHH to RRRVNAH, the HA x ratio falls from 1.09 to 0.91.

Going from RRRLNHH to RRRVNHE, the HA x ratio rises from 0.42 to 1.77.

Compared with RRHVNHH, RRRVNMH is higher in HA x ratio: 1.09 for the first, 1.22 for the second.

Going from RRRVNHT to RRNVNHH, the HA x ratio falls from 1.23 to 0.61.

Going from RRRVNPH to VRRVNHH, the HA x ratio rises from 0.89 to 0.98.

First: RRRVGHH
Second: RRRFNHH
The HA x ratio of the first is lower: 0.56 for the first, 0.78 for the second.

Compared with RRRVNHY, RRRVNHA is higher in HA x ratio: 0.36 for the first, 0.56 for the second.

First: RRRVNEH
Second: RRRVNHL
The HA x ratio of the first is higher: 0.49 for the first, 0.48 for the second.

First: ARRVNHH
Second: RRRVNRH
The HA x ratio of the first is lower: 0.61 for the first, 0.73 for the second.

Compared with RRRVVHH, RRDVNHH is lower in HA x ratio: 1.27 for the first, 0.60 for the second.

First: RRRVQHH
Second: RRRVAHH
The HA x ratio of the first is lower: 0.71 for the first, 1.62 for the second.

Compared with RRRVNHD, RRRVNFH is higher in HA x ratio: 0.46 for the first, 0.93 for the second.

Going from RERVNHH to LRRVNHH, the HA x ratio rises from 0.54 to 0.80.

Compared with RRRVNKH, RKRVNHH is higher in HA x ratio: 1.27 for the first, 1.35 for the second.

Going from RRLVNHH to NRRVNHH, the HA x ratio falls from 0.69 to 0.43.

Compared with RRRVYHH, RRRVNQH is lower in HA x ratio: 1.10 for the first, 0.65 for the second.

Compared with QRRVNHH, RRRPNHH is lower in HA x ratio: 0.78 for the first, 0.36 for the second.

With RRRVLHH the HA x ratio was 1.21.

RLPVNHH was tested, and the HA x ratio was 0.45 and 0.68 and 0.79.
With RRRDNHP the HA x ratio was 0.54 and 0.61 and 0.45.
RRPVNHT was tested, and the HA x ratio was 0.76 and 1.24 and 0.77.
RHRDNHH was tested, and the HA x ratio was 1.05 and 1.04 and 0.77.
In the case of RHPVNHH, the HA x ratio is reported as 0.90 and 1.23 and 0.70.
In the case of RGPVNHH, the HA x ratio is reported as 1.56 and 1.10 and 0.92.
RRRDNHQ was tested, and the HA x ratio was 0.36 and 0.45 and 0.67.
With RRADNHH the HA x ratio was 0.49 and 0.70 and 0.62.
RRPVNHS was tested, and the HA x ratio was 1.08 and 1.99 and 1.46.
For RGRDNHH, the HA x ratio was 0.78 and 1.32 and 1.08.
With RRPNNHH the HA x ratio was 1.47 and 1.90 and 1.08.
For RPPVNHH, the HA x ratio was 0.98 and 0.96 and 0.50.
With RRSMNHH the HA x ratio was 0.75 and 0.55.
With RRSKNHH the HA x ratio was 1.10 and 0.79 and 1.25.
In the case of RQPVNHH, the HA x ratio is reported as 0.63 and 0.91 and 1.08.
RNPVNHH was tested, and the HA x ratio was 1.21 and 1.04 and 0.76.
For RRSPNHH, the HA x ratio was 0.39 and 0.47 and 0.43.
In the case of RRYDNHH, the HA x ratio is reported as 1.25 and 0.92 and 1.56.
With RRPVNHY the HA x ratio was 1.43 and 0.76 and 0.77.
In the case of RRPVNHF, the HA x ratio is reported as 1.54 and 1.38 and 2.67.
With RKRDNHH the HA x ratio was 1.05 and 0.70.
For RRRDNHL, the HA x ratio was 0.92 and 0.83 and 0.51.
RRNDNHH was tested, and the HA x ratio was 0.51 and 0.36 and 0.50.
For RRHDNHH, the HA x ratio was 1.24 and 1.02 and 1.09.
With RIPVNHH the HA x ratio was 1.46 and 1.18 and 0.86.
For RRPLNHH, the HA x ratio was 0.82 and 0.76 and 0.42.
RRPVNHK was tested, and the HA x ratio was 1.14 and 0.99 and 0.62.
With RRPVNHE the HA x ratio was 1.47 and 1.30 and 1.11.
For RRPKNHH, the HA x ratio was 0.76 and 0.64 and 0.51.
RRMDNHH was tested, and the HA x ratio was 0.63 and 1.00 and 0.79.
For RRFDNHH, the HA x ratio was 0.56 and 0.46 and 0.45.
In the case of RSPVNHH, the HA x ratio is reported as 1.07 and 0.89 and 0.72.
RMRDNHH was tested, and the HA x ratio was 0.77 and 0.40 and 0.59.
RRRDNHD was tested, and the HA x ratio was 0.55 and 0.60 and 0.30.
For RRPRNHH, the HA x ratio was 0.65 and 0.78 and 0.39.
With RQRDNHH the HA x ratio was 1.02 and 1.69 and 1.17.
RRRDNHV was tested, and the HA x ratio was 1.05 and 1.22 and 1.16.
With RKPVNHH the HA x ratio was 1.27 and 1.55 and 1.97.
For RARDNHH, the HA x ratio was 0.61 and 0.73 and 0.72.
In the case of RTRDNHH, the HA x ratio is reported as 1.38 and 1.50.
In the case of RFPVNHH, the HA x ratio is reported as 1.20 and 1.08 and 1.00.
In the case of RRSFNHH, the HA x ratio is reported as 0.82 and 0.91 and 0.46.
In the case of RVPVNHH, the HA x ratio is reported as 1.05 and 1.07 and 0.75.
In the case of RWRDNHH, the HA x ratio is reported as 1.15 and 1.05 and 0.76.
With RRPVNHQ the HA x ratio was 1.37 and 1.26 and 0.94.
In the case of RRSRNHH, the HA x ratio is reported as 1.02 and 0.86 and 0.77.
RRSNNHH was tested, and the HA x ratio was 0.73 and 0.74 and 0.37.
For RRRDNHA, the HA x ratio was 1.07 and 0.73 and 0.58.
